Test results: US11993640B2, “Treating inflammatory lung disease” (United States Government as represented by the Department …, priority 2019, dated 2024)
“Also recorded” adds a separate entry of the source. Non-standard residues stand in square brackets, D forms with d. Residues, ends and D or L forms follow the SMILES beside them. *: point of attachment. Phenylacetyl(2,3,4,5,6-F5) = O=C(Cc1c(F)c(F)c(F)c(F)c1F)*; Phe(F5) = N[C@@H](Cc1c(F)c(F)c(F)c(F)c1F)C(=O)O; Phe(4-Cl) = N[C@@H](Cc1ccc(Cl)cc1)C(=O)O; hArg = N=C(N)NCCCC[C@H](N)C(=O)O; 12Ado = NCCCCCCCCCCCC(=O)O; Nle = CCCC[C@H](N)C(=O)O; Abu = CC[C@H](N)C(=O)O

What was measured:
[1] = tested on: NCI-N87 xenograft; test: Xenograft tumor growth in nude mice, stomach cancer N87; assay type: in vivo; details: Panel F, 4 weeks, 5 μg/day s.c., vs control
Procedure: (§1) The peptides' activity was compared with GHRH antagonist MIA-602. All statistical analyzses were performed from comparing GHRA antagonists to non-treated tumor (control).
(§2) Peptides and chemicals. GHRH antagonists MIA-602 and AVR-GHRH antagonists (see Table 2 above) were synthesized by solid phase methods and purified by HPLC. The peptides were dissolved in DMSO and further diluted in 10% 1, 2-propanediol. The final concentration of peptides was 50 µg/ml in 10% 1, 2-propanediol containing 0.1% of DMSO.
(§3) Cell culture. Human cancer cell lines including pancreatic (PANC-1 and CFPAC-1), lung (HCC827 and H460), stomach (NCI-N87), prostate (PC3), brest (MX-1 and HCC-1806), colorectal (HT-29), and ovarian (SK-OV-3 and OVCAR-3) were obtained from the American Type Culture Collection (ATCC) and cultured at 37° C. in a humidified 95% air/5% CO2 atmosphere in the medium recommended by ATCC.
Xenograft models of human cancers in nude mice. Female athymic (NCr nu/nu) nude mice, 5-to 6-weeks-old, obtained from the Envigo labs (Tampa, FL), were housed in laminar airflow cabinets under pathogen-free conditions with a 12-h light/12-h dark schedule, and were fed autoclaved standard chow and water. To generate mice with xenografted tumors, tumor xenografts were initiated by subcutaneous (s.c.) injection of […] human cancer cells into female nude mice. After about 4 weeks the resulting tumors were dissected and collected after removing necrosis tissues. The tumors were then cut into particles with size of ˜3 mm3 and transplanted s.c. by trocar needle into experimental animals. When tumors grew to the size of 50-60 mm3 (by volume), […] of 5 μg of GHRH antagonists MIA-602 or AVR-compounds (2-10 μg as indicated), or vehicle solutions (0.1% DMSO in 10% 1, 2-propanediol) respectively. Tumor sizes were measured weekly.
(§4) Statistical analysis. One-way ANOVA followed by Bonferroni comparison were performed. Data are expressed as Mean±SEM. To determine statistical significance between animal groups, two-tailed Student's t-test was conducted. Differences were considered significant when p<0.05.
(§5) Results. […] FIG. 1A-N represents in vivo inhibition of tumor growth during the treatment with GHRH antagonist MIA-602 and selected AVR antagonists in nude mice xenografted with various human tumors including pancreatic cancer PANC-1 (FIG. 1A) and CFPAC-1 (FIG. 1I); lung cancer HCC827 (FIGS. 1B, C) and H460 (FIG. 1H); stomach cancer N87 (FIGS. 1D-F); colon cancer HT-29 (FIG. 1G); breast cancer MX-1 and HCC-1806 (FIGS. 1J, K); ovarian cancer SK-OV-3 and OVACAR-3 (FIGS. 1L, M) and prostate cancer PC3 (FIG. 1N). See also Table 5.

[2] = tested on: PC3 xenograft; test: Xenograft tumor growth in nude mice, prostate cancer PC3; assay type: in vivo; details: Panel N, 8 weeks, 5 μg/day s.c.
Procedure: as §1, §2, §3
(§6) Xenograft models of human cancers in nude mice. Female athymic (NCr nu/nu) nude mice, 5-to 6-weeks-old, obtained from the Envigo labs (Tampa, FL), were housed in laminar airflow cabinets under pathogen-free conditions with a 12-h light/12-h dark schedule, and were fed autoclaved standard chow and water. To generate mice with xenografted tumors, tumor xenografts were initiated by subcutaneous (s.c.) injection of […] human cancer cells into female nude mice. After about 4 weeks the resulting tumors were dissected and collected after removing necrosis tissues. The tumors were then cut into particles with size of ˜3 mm3 and transplanted s.c. by trocar needle into experimental animals. When tumors grew to the size of 50-60 mm3 (by volume), mice were randomized into groups and treated daily for 4-8 weeks by subcutaneous administration of 5 μg of GHRH antagonists MIA-602 or AVR-compounds (2-10 μg as indicated), or vehicle solutions (0.1% DMSO in 10% 1, 2-propanediol) respectively. Tumor sizes were measured weekly.
(§7) Statistical analysis. One-way ANOVA followed by Bonferroni comparison were performed. Data are expressed as Mean±SEM. […]

[3] = tested on: OVCAR-3 xenograft; test: Xenograft tumor growth in nude mice, ovarian cancer OVCAR-3; assay type: in vivo; details: Panel M, 9 weeks
Procedure: as §1, §2, §3, §6, §7

[4] = tested on: rat pituitary cells; test: Inhibition of GHRH(1-29)NH2-stimulated GH release from rat pituitary cells (ELISA); assay type: cell-based; details: analog 20 nM
Procedure: In vitro assessment of the antagonistic activity of GHRH analogs. Rats were decapitated and pituitaries were collected in pre-warmed HBSS (Hanks' Balanced Salt Solution). Tissue was then cut into small pieces and digested in HBSS medium containing 3% BSA, 50 μg/ml gentamycin and 0.5% collagenase for 50 minutes at 37° C. Cells were further dispersed by pipetting and passed through a 100 μm cell strainer with the addition of DMEM containing 50 μg/ml gentamycin, 10% horse serum and 2.5% FBS (growth medium). Cells were harvested at 475×g for 2 minutes, resuspended in fresh growth medium and seeded onto poly-D-lysine-coated 24-well plates (7 pituitaries/plate). Cells were left to recover for 4 days. Growth medium was then replaced with serum-free DMEM for 4 hours and GHRH analogs (at concentration of 20 nM) were added in DMEM containing 0.1% BSA for 30 minutes. Cells were replenished with medium containing the same concentration of the analogs and 1 nM GHRH(1-29)NH2 for 30 minutes. Medium from this step was collected, centrifuged at 800 g for 3 minutes and GH concentration was determined by ELISA (ALPCO Diagnostics, Mill Valley, CA) according to the manufacturer's instruction.

[5] = tested on: SK-OV-3 xenograft; test: Xenograft tumor growth in nude mice, ovarian cancer SK-OV-3; assay type: in vivo; details: Panel L, 7 weeks
Procedure: as §1, §2, §3, §6, §4, §5

[6] = tested on: HCC827 xenograft; test: Xenograft tumor growth in nude mice, lung cancer HCC827; assay type: in vivo; details: 5 μg/day s.c., vs control
Procedure: as §1, §2, §3, §6, §4, §5

[7] = biological target: T1, membrane GHRH-receptors on human anterior pituitary cells (Homo sapiens, UniProt Q02643); test: Competitive receptor binding, displacement of 125I-[His1,Nle27]-hGH-RH(1-32)NH2 from human pituitary membranes
T1 construct: Human pituitary was purchased from the National Hormone and Peptide Program; tissue National Hormone and Peptide Program; host or cells: human pituitary membrane fractions
T1 sequence (Q02643 23-423): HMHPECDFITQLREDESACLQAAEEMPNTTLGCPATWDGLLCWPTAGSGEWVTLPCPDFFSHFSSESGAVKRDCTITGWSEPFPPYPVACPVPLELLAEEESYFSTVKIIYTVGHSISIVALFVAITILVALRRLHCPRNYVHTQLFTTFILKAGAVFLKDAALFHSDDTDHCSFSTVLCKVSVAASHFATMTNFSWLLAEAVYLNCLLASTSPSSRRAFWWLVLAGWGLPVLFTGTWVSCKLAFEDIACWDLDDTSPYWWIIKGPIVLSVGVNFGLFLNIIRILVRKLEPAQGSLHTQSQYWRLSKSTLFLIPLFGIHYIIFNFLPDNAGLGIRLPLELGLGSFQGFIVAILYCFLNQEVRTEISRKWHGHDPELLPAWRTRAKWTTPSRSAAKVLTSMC
Procedure: Receptor binding affinities in vitro. Preparation of human pituitary membrane fractions and receptor binding of analogs of GH-RH were performed (Halmos G, Rekasi Z, Szoke B, Schally A V. (1993) Receptor 3:87-97). Human pituitary was purchased from the National Hormone and Peptide Program. […] Relative affinities compared to hGH-RH(1-29)NH2 were calculated as the ratio of IC50 (dose causing 50% inhibition of specific binding to receptors) of the tested peptides to the IC50 of hGH-RH(1-29)NH2. The values were calculated from technical duplicate tubes.
Nineteen new AVR analogs of GHRH were tested in the receptor binding assay. Table 6 presents the IC50 values of GHRH antagonists to membrane GHRH-receptors binding on human anterior pituitary cells.

[8] = tested on: HT-29 xenograft; test: Xenograft tumor growth in nude mice, colon cancer HT-29; assay type: in vivo; details: Panel G, 6 weeks
Procedure: as §1, §2, §3, §6, §4, §5

IC50 ([7]; human anterior pituitary membranes, mean of two to three determinations, read-out: IC50)	Compound	% Inhibition [1]	Tumor Growth % [2]	Tumor Growth % ([3]; 2.5 μg/day s.c.)	Tumor Growth % ([3]; 5 μg/day s.c.)	Inhibitory effect on the release of GH compared with MIA-602 [4]	Tumor Growth % ([5]; 2.5 μg/day s.c.)	Tumor Growth % ([5]; 5 μg/day s.c.)	% Inhibition ([6]; Panel B, 7 weeks)	% Inhibition ([6]; Panel C, 8 weeks)	Binding affinity to membrane receptors of human pituitary cells [7]	Tumor Growth % ([8]; 2 μg/day s.c.)	Tumor Growth % ([8]; 5 μg/day s.c.)
	CCCC[C@H](NC(=O)[C@@H](NC(=O)[C@H](CC(=O)O)NC(=O)[C@H](CCC(N)=O)NC(=O)[C@H](CC(C)C)NC(=O)[C@H](CC(C)C)NC(=O)[C@H](CCCCN)NC(=O)[C@H](CCCNC(=N)N)NC(=O)[C@H](C)NC(=O)[C@H](CO)NC(=O)[C@H](CC(C)C)NC(=O)[C@H](CCC(N)=O)NC(=O)[C@H](CC)NC(=O)[C@H](CC(C)C)NC(=O)[C@@H](NC(=O)[C@H](CCCCN)NC(=O)[C@H](CCCNC(=N)N)NC(=O)[C@H](Cc1c(F)c(F)c(F)c(F)c1F)NC(=O)[C@H](CCCCNC(=N)N)NC(=O)[C@H](C)NC(=O)[C@@H](NC(=O)[C@H](Cc1ccc(Cl)cc1)NC(=O)[C@@H](NC(=O)[C@H](C)NC(=O)[C@H](CC(=O)O)NC(=O)[C@@H](CCCNC(=N)N)NC(=O)[C@H](Cc1ccc(O)cc1)NC(=O)CCCCCCCCCCCNC(=O)Cc1c(F)c(F)c(F)c(F)c1F)[C@@H](C)CC)[C@@H](C)O)C(C)C)[C@@H](C)CC)C(=O)N[C@H](CCCNC(=N)N)C(=O)N[C@@H](CCCCNC(=N)N)C(=O)NCCCCCCCCCCCC(N)=O [AVR-353, 5FPhAC-Ada-Tyr-DArg-Asp-Ala-Ile-Cpa-Thr-Ala-Har-5FPhe-Arg-Lys-Val-Leu-Abu-Gln-Leu-Ser-Ala-Arg-Lys-Leu-Leu-Gln-Asp-Ile-Nle-DArg-Har-Ada-NH2] ({Phenylacetyl(2,3,4,5,6-F5)-12Ado}-Y[dR]DAI[Phe(4-Cl)]TA[hArg][Phe(F5)]RKVL[Abu]QLSARKLLQDI[Nle][dR][hArg][12Ado]-NH2)	65.0%	496.7%	357.0%	255.2%	higher inhibitory effects than MIA-602	1056.0%	910.7%	71.0%	50.0%	higher binding affinity in comparison to MIA-602; also recorded: highest binding affinities	549.30%	494.70%
0.14 nM	CCCC[C@H](NC(=O)[C@@H](NC(=O)[C@H](CC(=O)O)NC(=O)[C@H](CCC(N)=O)NC(=O)[C@H](CC(C)C)NC(=O)[C@H](CC(C)C)NC(=O)[C@H](CCCCN)NC(=O)[C@H](CCCNC(=N)N)NC(=O)[C@H](C)NC(=O)[C@H](CO)NC(=O)[C@H](CC(C)C)NC(=O)[C@H](CCC(N)=O)NC(=O)[C@H](CC)NC(=O)[C@H](CC(C)C)NC(=O)[C@@H](NC(=O)[C@H](CCCCN)NC(=O)[C@H](CCCNC(=N)N)NC(=O)[C@H](Cc1c(F)c(F)c(F)c(F)c1F)NC(=O)[C@H](CCCCNC(=N)N)NC(=O)[C@H](C)NC(=O)[C@@H](NC(=O)[C@H](Cc1ccc(Cl)cc1)NC(=O)[C@@H](NC(=O)[C@H](C)NC(=O)[C@H](CC(=O)O)NC(=O)[C@@H](CCCNC(=N)N)NC(=O)[C@H](Cc1ccc(O)cc1)NC(=O)CCCCCCCCCCCNC(=O)Cc1c(F)c(F)c(F)c(F)c1F)[C@@H](C)CC)[C@@H](C)O)C(C)C)[C@@H](C)CC)C(=O)N[C@H](CCCNC(=N)N)C(=O)N[C@@H](CCCCNC(=N)N)C(=O)NCCCCCCCCCCCC(=O)NC [AVR-354] ({Phenylacetyl(2,3,4,5,6-F5)-12Ado}-Y[dR]DAI[Phe(4-Cl)]TA[hArg][Phe(F5)]RKVL[Abu]QLSARKLLQDI[Nle][dR][hArg][12Ado]-NHMe)		343.6%								higher binding affinity in comparison to MIA-602; also recorded: highest binding affinities		417.90%
